Results published in article PMC8713287, “Synthesis and Cytotoxic Activity of Lepidilines A–D: Comparison with Some 4,5-Diphenyl Analogues and Related Imidazole-2-thiones” (Journal of Natural Products, 2021).
Structures can show the parent of a compound that is named as a salt.

Assays:
[1] = test system: promyelocytic leukemia HL-60; experiment: MTT cytotoxicity assay, HL-60; format: cell-based, human; conditions: for IC50: MTT, 48 h incubation, mean ± SEM; for HUVEC/HL-60 IC50 ratio: normal HUVEC vs HL-60
Method: (§1) Potential biological activity of all four lepidilines A–D (1a–1d), as well as their 4,5-diphenyl analogues 6a[PF6], 6c[PF6], and 6d[PF6] (as hexafluorophosphate salts) and a series of imidazole-2-thiones 7 and 8 obtained therefrom, was evaluated in vitro against two human cancer cell lines: promyelocytic leukemia HL-60 and breast cancer adenocarcinoma MCF-7. Selected analogues were also tested against human umbilical vein endothelial cells (HUVECs) using the MTT cytotoxicity assay. Concentration–response analysis was performed to determine drug concentrations required to inhibit the growth of cells by 50% (IC50) after 48 h of incubation.
(§2) Human promyelocytic leukemia (HL-60) and human breast cancer adenocarcinoma (MCF-7) cell lines were obtained from the European Collection of Cell Cultures, while HUVECs were purchased from the American Type Culture Collection. HL-60 cells were cultured in RPMI 1640 plus GlutaMax I medium (Gibco/Life Technologies, Carlsbad, CA, USA). MCF-7 cells were maintained in minimum essential medium Eagle (Sigma-Aldrich, St. Louis, MO, USA) supplemented with 2 mM glutamine and Men nonessential amino acid solution (Sigma-Aldrich). Both media were supplemented with 10% heat-inactivated fetal bovine serum (Biological Industries, Beit-Haemek, Israel) and antibiotics (100 U/mL penicillin and 100 μg/mL streptomycin) (Sigma-Aldrich). HUVEC cells were grown in EGM-2 endothelial medium BulletKit (Lonza, Basel, Switzerland). Cells were maintained at 37 °C in a 5% CO2 atmosphere and were grown until 80% confluent.
(§3) The tested compounds were dissolved in sterile dimethyl sulfoxide (DMSO) and further diluted with culture medium. The final concentration of DMSO in cell cultures was less than 0.1% v/v. Controls without and with 0.1% DMSO were performed in each experiment.
(§4) The MTT assay was performed according to the known procedure.[30] The cells were incubated with the analogues for 48 h. The absorbance of the blue formazan product was measured at 560 nm using a FlexStation 3 multi-mode microplate reader (Molecular Devices, LLC, CA, USA) and compared with control (untreated cells). All experiments were performed in triplicate.

[2] = test system: breast cancer adenocarcinoma MCF-7; experiment: MTT cytotoxicity assay, MCF-7; format: cell-based, human; conditions: mean ± SEM
Method: as §1, §2, §3, §4

[3] = test system: human umbilical vein endothelial cells (HUVECs); experiment: MTT cytotoxicity assay, HUVEC; format: cell-based; conditions: 48 h incubation, normal cells, mean ± SEM
Method: as §1, §2, §3, §4

[4] = test system: eight human cancer cell lines; set-up: method as in PMID 12932133; conditions: inactive against all those cell lines; cited from earlier work
[5] = test system: pancreatic adenocarcinoma PACA2; set-up: method as in PMID 12932133; conditions: cited from earlier work
breast carcinoma MDA-231 = test system: breast carcinoma MDA-231; set-up: method as in PMID 12932133; conditions: cited from earlier work
[6] = Homo sapiens, MCF7, 48 h incubation

| SMILES | melting point | IC50 ([1]; Homo sapiens, HL-60, 48 h) | IC50 [2, 6] | IC50 [3] | further results |
| --- | --- | --- | --- | --- | --- |
| COc1cccc(C[n+]2cn(Cc3ccccc3)c(C)c2C)c1 (as salt: phosphate) [1c[PF6], 1-Benzyl-3-(3-methoxybenzyl)-4,5-dimethylimidazolium hexafluorophosphate] | 102 to 104 °C | – | – | – | – |
| c1ccc(Cn2c[n+](Cc3ccccc3)c(-c3ccccc3)c2-c2ccccc2)cc1 (as salt: phosphate) [6a[PF6], 1,3-Dibenzyl-4,5-diphenylimidazolium hexafluorophosphate] | 129 to 131 °C | – | – | – | – |
| COc1cccc(C[n+]2cn(Cc3ccccc3)c(-c3ccccc3)c2-c2ccccc2)c1 (as salt: phosphate) [6c[PF6], 1-Benzyl-3-(3-methoxybenzyl)-4,5-diphenylimidazolium hexafluorophosphate] | 78 to 81 °C | – | – | – | – |
| COc1cccc(C[n+]2c(-c3ccccc3)c(-c3ccccc3)n(Cc3ccccc3)c2C)c1 (as salt: phosphate) [6d[PF6], 1-Benzyl-3-(3-methoxybenzyl)-2-methyl-4,5-diphenylimidazolium hexafluorophosphate] | 175 to 177 °C | – | – | – | – |
| Cc1c(C)[n+](Cc2ccccc2)cn1Cc1ccccc1 [1a, 1,3-Dibenzyl-4,5-dimethylimidazolium chloride] | – | 32.3 ± 3.5 µM | > 100 µM | > 100 µM | IC50 [4]: > 10 µM |
| Cc1c(C)[n+](Cc2ccccc2)cn1Cc1ccccc1 [1a[PF6]] [1,3-Dibenzyl-4,5-dimethylimidazolium hexafluorophosphate] | – | – | – | – | IC50 [1]: 32 ± 2 µM; IC50 ([2]; 48 h incubation): > 100 µM |
| Cc1c(C)[n+](Cc2ccccc2)c(C)n1Cc1ccccc1.[Cl-] [1b, 1,3-Dibenzyl-2,4,5-trimethylimidazolium chloride] | 228 to 229 °C | 3.8 ± 0.2 µM | > 100 µM | > 100 µM | IC50 PACA2 [5]: 1.38 µg/mL; IC50 ([5]; converted from μg/mL): 4.2 µM; IC50 MDA-231 (breast carcinoma MDA-231): 1.66 µg/mL; IC50 (breast carcinoma MDA-231; converted from μg/mL): 5.1 µM |
| COc1cccc(Cn2c[n+](Cc3ccccc3)c(C)c2C)c1.[Cl-] [1c, 1-Benzyl-3-(3-methoxybenzyl)-4,5-dimethylimidazolium chloride] | 94 to 96 °C | 27.7 ± 2.5 µM | 75 ± 5 µM | > 100 µM | – |
| COc1cccc(C[n+]2cn(Cc3ccccc3)c(C)c2C)c1 [1c[PF6], 1-Benzyl-3-(3-methoxybenzyl)-4,5-dimethylimidazolium hexafluorophosphate] | – | 19.9 ± 0.2 µM | 69.9 ± 0.2 µM | – | – |
| COc1cccc(Cn2c(C)c(C)[n+](Cc3ccccc3)c2C)c1.[Cl-] [1d, 1-Benzyl-3-(3-methoxybenzyl)-2,4,5-trimethylimidazolium chloride] | 214 to 216 °C | 1.1 ± 0.1 µM | > 100 µM | > 100 µM | fold more cytotoxic for leukemia (HL-60) than for breast cancer (MCF-7) cells ([1]; MCF-7 vs HL-60): over 100 fold; HUVEC/HL-60 IC50 ratio [1]: over 100 |
| c1ccc(Cn2c[n+](Cc3ccccc3)c(-c3ccccc3)c2-c2ccccc2)cc1 [6a[PF6], 1,3-Dibenzyl-4,5-diphenylimidazolium hexafluorophosphate] | – | 1.2 ± 0.1 µM | 8.2 ± 0.2 µM | – | – |
| COc1cccc(C[n+]2cn(Cc3ccccc3)c(-c3ccccc3)c2-c2ccccc2)c1.[Br-] [6c[Br], 1-Benzyl-3-(3-methoxybenzyl)-4,5-diphenylimidazolium bromide] | 149 to 151 °C | – | – | – | – |
| COc1cccc(C[n+]2cn(Cc3ccccc3)c(-c3ccccc3)c2-c2ccccc2)c1 [6c[PF6], 1-Benzyl-3-(3-methoxybenzyl)-4,5-diphenylimidazolium hexafluorophosphate] | – | 1.2 ± 0.2 µM | 7.9 ± 0.3 µM | 8.8 ± 0.1 µM | – |
| COc1cccc(C[n+]2c(-c3ccccc3)c(-c3ccccc3)n(Cc3ccccc3)c2C)c1 [6d[PF6], 1-Benzyl-3-(3-methoxybenzyl)-2-methyl-4,5-diphenylimidazolium hexafluorophosphate] | – | 1.2 ± 0.1 µM | 6.5 ± 0.2 µM | – | – |
| Cc1c(C)n(Cc2ccccc2)c(=S)n1Cc1ccccc1 [7a, 1,3-Dibenzyl-4,5-dimethylimidazole-2-thione] | 183 to 185 °C | > 100 µM | > 100 µM | – | – |
| COc1cccc(Cn2c(C)c(C)n(Cc3ccccc3)c2=S)c1 [7c, 1-(3′-Methoxybenzyl)-3-benzyl-4,5-dimethylimidazole-2-thione] | – | 20.2 ± 1.9 µM | > 100 µM | – | – |
| S=c1n(Cc2ccccc2)c(-c2ccccc2)c(-c2ccccc2)n1Cc1ccccc1 [8a, 1,3-Dibenzyl-4,5-diphenylimidazole-2-thione] | 180 to 182 °C | 8.1 ± 0.3 µM | > 100 µM | – | – |
| COc1cccc(Cn2c(-c3ccccc3)c(-c3ccccc3)n(Cc3ccccc3)c2=S)c1 [8c, 1-(3′-Methoxybenzyl)-3-benzyl-4,5-diphenylimidazole-2-thione] | 52 to 55 °C | 55 ± 5 µM | > 100 µM | – | – |
| COc1cccc2c1C(=O)c1c(O)c3c(c(O)c1C2=O)C[C@@](O)(C(=O)CO)C[C@@H]3O[C@H]1C[C@H](N)[C@H](O)[C@H](C)O1 [DXR, doxorubicin, reference compound] | – | 0.12 ± 0.01 µM | 0.9 ± 0.1 µM | 1.4 ± 0.1 µM | fold more cytotoxic than lepidiline D ([1]; DXR vs lepidiline D, HL-60): 10 fold; HUVEC/HL-60 IC50 ratio [1]: about 10 |
| c1c[n+](C23CC4CC(CC(C4)C2)C3)cn1C12CC3CC(CC(C3)C1)C2 [compound 9, 1,3-diadamantylimidazolium bromide] | – | 1.8 ± 0.1 µM | 51.5 ± 1.5 µM | – | – |
| c1c[n+](OC23CC4CC(CC(C4)C2)C3)cn1OC12CC3CC(CC(C3)C1)C2 [compound 10] | – | 0.3 ± 0.1 µM | 4.5 ± 0.1 µM | 9.1 ± 0.3 µM | – |
